Test results reported in article PMC8160793, “Potent Antimicrobial and Antibiofilm Activities of Feleucin-K3 Analogs Modified by α-(4-Pentenyl)-Ala against Multidrug-Resistant Bacteria” (Biomolecules, 2021).
Values after ≈ are worked out from the molar mass of the structure shown. Square brackets hold non-standard residues; d marks the D form. Ends that are not written are not given here. Peptide text beside a SMILES is read from it. ξ: configuration not given here. ξαMeGly(pent-4-enyl) = C=CCCCC(C)(N)C(=O)O

Experiments:
E. coli ATCC 25922 = type: cell-based; conditions: ATCC 25922, 18 h
Procedure: (§1) The minimum inhibitory concentration (MIC) of the Feleucin-K3 analogs was tested by the broth microdilution method. Sensitive bacteria and drug-resistant bacteria were diluted to 1 × 10^6 CFU/mL, according to the McFarland standards. Bacterial suspension and peptide solutions (8–128 μg/mL) were incubated at 37 °C for 18 h. The minimum concentration without obvious bacterial growth was the MIC of the peptides. The stability of the analogs in a physiological salt environment was also investigated. In brief, salt powder (450-mM NaCl) was dissolved in deionized water, and the following investigational steps were the same as those described before. The above steps were repeated several times, until the same value was obtained three times.

MRSA 113 = type: cell-based, Staphylococcus aureus; conditions: 113, 18 h
Procedure: as §1

MRSA 23 = type: cell-based, Staphylococcus aureus; conditions: 23, 18 h
Procedure: as §1

MRSA 48 = type: cell-based, Staphylococcus aureus; conditions: 48, 18 h
Procedure: as §1

MRSA 51 = type: cell-based, Staphylococcus aureus; conditions: 51, 18 h
Procedure: as §1

MRSA 52 = type: cell-based, Staphylococcus aureus; conditions: 52, 18 h
Procedure: as §1

MRSA 54 = type: cell-based, Staphylococcus aureus; conditions: 54, 18 h
Procedure: as §1

MRSA 71 = type: cell-based, Staphylococcus aureus; conditions: 71, 18 h
Procedure: as §1

MRSA 74 = type: cell-based, Staphylococcus aureus; conditions: 74, 18 h
Procedure: as §1

MRSA 75 = type: cell-based, Staphylococcus aureus; conditions: 75, 18 h
Procedure: as §1

MRSA 936 = type: cell-based, Staphylococcus aureus; conditions: 936, 18 h
Procedure: as §1

MRSA ATCC 33591 = type: cell-based, Staphylococcus aureus; conditions: ATCC 33591, 18 h
Procedure: as §1

S. aureus 725 = type: cell-based, Staphylococcus aureus; conditions: 725, 18 h
Procedure: as §1

S. aureus 794 = type: cell-based, Staphylococcus aureus; conditions: 794, 18 h
Procedure: as §1

S. aureus ATCC 25923 = type: cell-based, Staphylococcus aureus; conditions: ATCC 25923, 18 h
Procedure: as §1

P. aeruginosa ATCC 27853 = type: cell-based, Pseudomonas aeruginosa; conditions: ATCC 27853, 18 h
Procedure: as §1

A. baumannii 51243 = type: cell-based, Acinetobacter baumannii; conditions: 51243, 18 h
Procedure: as §1

A. baumannii 5444 = type: cell-based, Acinetobacter baumannii; conditions: 5444, 18 h
Procedure: as §1

A. baumannii 822144 = type: cell-based, Acinetobacter baumannii; conditions: 822144, 18 h
Procedure: as §1

A. baumannii 8309 = type: cell-based, Acinetobacter baumannii; conditions: 8309, 18 h
Procedure: as §1

A. baumannii 91105 = type: cell-based, Acinetobacter baumannii; conditions: 91105, 18 h
Procedure: as §1

A. baumannii 91152 = type: cell-based, Acinetobacter baumannii; conditions: 91152, 18 h
Procedure: as §1

A. baumannii 91199 = type: cell-based, Acinetobacter baumannii; conditions: 91199, 18 h
Procedure: as §1

A. baumannii 91810 = type: cell-based, Acinetobacter baumannii; conditions: 91810, 18 h
Procedure: as §1

A. baumannii 91869 = type: cell-based, Acinetobacter baumannii; conditions: 91869, 18 h
Procedure: as §1

A. baumannii 91944 = type: cell-based, Acinetobacter baumannii; conditions: 91944, 18 h
Procedure: as §1

A. baumannii 9234 = type: cell-based, Acinetobacter baumannii; conditions: 9234, 18 h
Procedure: as §1

A. baumannii 92359 = type: cell-based, Acinetobacter baumannii; conditions: 92359, 18 h
Procedure: as §1

A. baumannii 9236 = type: cell-based, Acinetobacter baumannii; conditions: 9236, 18 h
Procedure: as §1

A. baumannii 9331 = type: cell-based, Acinetobacter baumannii; conditions: 9331, 18 h
Procedure: as §1

A. baumannii 9336 = type: cell-based, Acinetobacter baumannii; conditions: 9336, 18 h
Procedure: as §1

A. baumannii 97830 = type: cell-based, Acinetobacter baumannii; conditions: 97830, 18 h
Procedure: as §1

A. baumannii 98110 = type: cell-based, Acinetobacter baumannii; conditions: 98110, 18 h
Procedure: as §1

A. baumannii 9828 = type: cell-based, Acinetobacter baumannii; conditions: 9828, 18 h
Procedure: as §1

A. baumannii 9840 = type: cell-based, Acinetobacter baumannii; conditions: 9840, 18 h
Procedure: as §1

A. baumannii 9896 = type: cell-based, Acinetobacter baumannii; conditions: 9896, 18 h
Procedure: as §1

A. baumannii ATCC 19606 = type: cell-based, Acinetobacter baumannii; conditions: ATCC 19606, 18 h
Procedure: as §1

A. baumannii = experiment: Resistance development assay, sequential passaging; type: cell-based, Acinetobacter baumannii; conditions: serial passage at sub-MIC, 20 passages
Procedure: Serial passage and MIC determination were used to explore whether the bacteria developed drug resistance. On the first day, the MICs of the peptides were determined as described above. The next day, the bacterial suspension of sub-MIC concentration was cultivated to the mid-log phase. The MICs of the peptides were detected again, and this process was repeated for 20 days. The MICs of the antibiotics, including amoxicillin (AML), ceftazidime (CAZ) and imipenem, were also determined as controls.

[1] = system: multidrug-resistant A. baumannii; parameters: method as in PMID 32590058; conditions: previous studies; cited from earlier work
mouse RBCs = conditions: cited from earlier work
Description: The hemolysis rates of K70 were less than 1%, even at the maximum c ...

Row | MIC, MRSA 113 (MRSA 113) [µg/mL] | MIC, MRSA 23 (MRSA 23) [µg/mL] | MIC, MRSA 48 (MRSA 48) [µg/mL] | MIC, MRSA 51 (MRSA 51) [µg/mL] | MIC, MRSA 52 (MRSA 52) [µg/mL] | MIC, MRSA 54 (MRSA 54) [µg/mL] | MIC, MRSA 71 (MRSA 71) [µg/mL] | MIC, MRSA 74 (MRSA 74) [µg/mL] | MIC, MRSA 75 (MRSA 75) [µg/mL] | MIC, MRSA 936 (MRSA 936) [µg/mL] | MIC, MRSA ATCC 33591 (MRSA ATCC 33591) [µg/mL] | MIC, S. aureus 725 (S. aureus 725) [µg/mL] | MIC, S. aureus 794 (S. aureus 794) [µg/mL] | MIC, A. baumannii 51243 (A. baumannii 51243) [µg/mL] | MIC, A. baumannii 5444 (A. baumannii 5444) [µg/mL] | MIC, A. baumannii 822144 (A. baumannii 822144) [µg/mL] | MIC, A. baumannii 8309 (A. baumannii 8309) [µg/mL] | MIC, A. baumannii 91105 (A. baumannii 91105) [µg/mL] | MIC, A. baumannii 91152 (A. baumannii 91152) [µg/mL] | MIC, A. baumannii 91199 (A. baumannii 91199) [µg/mL] | Compound | other results
1 | 4 (≈ 3.55 µM) | 4 (≈ 3.55 µM) | 4 (≈ 3.55 µM) | 4 (≈ 3.55 µM) | 4 (≈ 3.55 µM) | 4 (≈ 3.55 µM) | 4 (≈ 3.55 µM) | 4 (≈ 3.55 µM) | 4 (≈ 3.55 µM) | 4 (≈ 3.55 µM) | 4 (≈ 3.55 µM) | 4 (≈ 3.55 µM) | 16 (≈ 14.2 µM) | 32 (≈ 28.4 µM) | 8 (≈ 7.11 µM) | 16 (≈ 14.2 µM) | 8 (≈ 7.11 µM) | 8 (≈ 7.11 µM) | 16 (≈ 14.2 µM) | 16 (≈ 14.2 µM) | C=CCCCC(C)(NC(=O)[C@H](CC(C)C)NC(=O)[C@H](CC(C)C)NC(=O)[C@H](CCCCN)NC(=O)[C@H](CC(C)C)NC(=O)[C@@H](N)Cc1ccccc1)C(=O)N[C@@H](CCCCN)C(=O)N[C@@H](CC(C)C)C(=O)N[C@@H](CC(C)C)C(N)=O (stereo partly shown) [Feleucin-K71] (H-FLKLL[ξαMeGly(pent-4-enyl)]KLL-NH2) | MIC, E. coli ATCC 25922 (E. coli ATCC 25922): 16 µg/mL (≈ 14.2 µM); MIC, S. aureus ATCC 25923 (S. aureus ATCC 25923): 4 µg/mL (≈ 3.55 µM); MIC, P. aeruginosa ATCC 27853 (P. aeruginosa ATCC 27853): 8 µg/mL (≈ 7.11 µM); MIC, A. baumannii 91810 (A. baumannii 91810): 16 µg/mL (≈ 14.2 µM); MIC, A. baumannii 91869 (A. baumannii 91869): 8 µg/mL (≈ 7.11 µM); MIC, A. baumannii 91944 (A. baumannii 91944): 16 µg/mL (≈ 14.2 µM); MIC, A. baumannii 9234 (A. baumannii 9234): 8 µg/mL (≈ 7.11 µM); MIC, A. baumannii 92359 (A. baumannii 92359): 16 µg/mL (≈ 14.2 µM); MIC, A. baumannii 9236 (A. baumannii 9236): 16 µg/mL (≈ 14.2 µM); MIC, A. baumannii 9331 (A. baumannii 9331): 64 µg/mL (≈ 56.9 µM); MIC, A. baumannii 9336 (A. baumannii 9336): 8 µg/mL (≈ 7.11 µM); MIC, A. baumannii 97830 (A. baumannii 97830): 32 µg/mL (≈ 28.4 µM); MIC, A. baumannii 98110 (A. baumannii 98110): 16 µg/mL (≈ 14.2 µM); MIC, A. baumannii 9828 (A. baumannii 9828): 16 µg/mL (≈ 14.2 µM); MIC, A. baumannii 9840 (A. baumannii 9840): 8 µg/mL (≈ 7.11 µM); MIC, A. baumannii 9896 (A. baumannii 9896): 8 µg/mL (≈ 7.11 µM); MIC, A. baumannii ATCC 19606 (A. baumannii ATCC 19606): 4 µg/mL (≈ 3.55 µM)
2 |  |  |  |  |  |  |  |  |  |  |  |  |  |  |  |  |  |  |  |  | C[C@@H](O)[C@H]1C(=O)N2C(C(=O)O)=C(SCCN=CN)C[C@H]12 [imipenem] | maximum fold increase of MIC, A. baumannii (A. baumannii): ≤ 16 fold; MIC against multidrug-resistant A. baumannii [1]: ≤ 64 µg/mL
3 | 8 | 8 | 8 | 8 | 8 | 8 | 8 | 8 | 8 | 8 | 8 | 8 | 16 | 8 | 8 | 8 | 8 | 8 | 8 | 8 | FLKLLKKLL-NH2 [Feleucin-K3] | MIC, A. baumannii 91810 (A. baumannii 91810): 8 µg/mL; MIC, A. baumannii 91869 (A. baumannii 91869): 8 µg/mL; MIC, A. baumannii 91944 (A. baumannii 91944): 8 µg/mL; MIC, A. baumannii 9234 (A. baumannii 9234): 8 µg/mL; MIC, A. baumannii 92359 (A. baumannii 92359): 8 µg/mL; MIC, A. baumannii 9236 (A. baumannii 9236): 16 µg/mL; MIC, A. baumannii 9331 (A. baumannii 9331): 16 µg/mL; MIC, A. baumannii 9336 (A. baumannii 9336): 8 µg/mL; MIC, A. baumannii 97830 (A. baumannii 97830): 8 µg/mL; MIC, A. baumannii 98110 (A. baumannii 98110): 8 µg/mL; MIC, A. baumannii 9828 (A. baumannii 9828): 16 µg/mL; MIC, A. baumannii 9840 (A. baumannii 9840): 8 µg/mL; MIC, A. baumannii 9896 (A. baumannii 9896): 8 µg/mL; hemolytic rate at 256 µg/mL (mouse RBCs): more than 40%
